Experimental findings from ChEMBL document CHEMBL1201862, “PubChem BioAssay data set” (2004) are described below.

Activity calls are given as the source filed them. A value given as a limit tells only on which side of the number the result lay.

Some targets named below: Cytochrome P450 3A4 (Homo sapiens, UniProt P08684); Cytochrome P450 2C9 (Homo sapiens, UniProt P11712); Cytochrome P450 2D6 (Homo sapiens, UniProt P10635).
The target in data set [1] is T1, Endoribonuclease toxin MazF (Escherichia coli K-12, UniProt P0AE70).
T1 sequence (P0AE70 whole entry): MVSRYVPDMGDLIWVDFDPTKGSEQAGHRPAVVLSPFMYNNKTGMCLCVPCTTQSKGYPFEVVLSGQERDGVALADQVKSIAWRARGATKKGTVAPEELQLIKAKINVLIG
Description: fluorescent RNA oligo signal without MazF, dose response, counter-screen for MazEF activator project, biochemical, fluorescence, single-stranded RNase substrate (AID 588502). The format is functional.

Data set [2] addresses T1, Endoribonuclease toxin MazF. Description: MazF toxin RNase activators, dose response, biochemical, fluorescence, single-stranded RNA substrate, uHTS hits (AID 588481). The format is functional.
Data set [3] concerns the target Eukaryotic translation initiation factor 4E (Mus musculus, UniProt P63073). Description: eIF4E–eIF4G protein interaction inhibitors, dose response, biochemical, TR-FRET (AID 855).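 Also: potency for disrupting eIF4E binding to eIF4GI seen as loss of FRET.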 The format is functional. (In general: Time-resolved FRET reads energy transfer from a long-lived donor to a nearby acceptor.)
Data set [4] addresses T2, RNA-binding protein pos-1 (Caenorhabditis elegans, UniProt G5EF15).
T2 sequence (G5EF15 whole entry): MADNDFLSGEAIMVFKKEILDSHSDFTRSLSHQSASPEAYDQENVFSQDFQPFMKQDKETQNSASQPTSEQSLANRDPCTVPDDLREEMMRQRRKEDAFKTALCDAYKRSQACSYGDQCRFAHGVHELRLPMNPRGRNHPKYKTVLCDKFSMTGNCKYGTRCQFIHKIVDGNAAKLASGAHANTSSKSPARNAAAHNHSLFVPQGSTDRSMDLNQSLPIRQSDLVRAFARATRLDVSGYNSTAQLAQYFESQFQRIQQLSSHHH
Description: inhibitors of POS-1/mex-3 RNA binding, dose response, biochemical, fluorescence polarization (AID 1964).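 Also: purified POS-1 fused to maltose binding protein made in E. coli; potency of compounds blocking POS-1 binding to fluorescent RNA.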 Background: Polarisation of emitted light reports the rotation of a fluorescent probe.

Data set [5] has as its target T3, Zinc finger protein mex-5 (Caenorhabditis elegans, UniProt Q9XUB2).
T3 sequence (Q9XUB2 whole entry): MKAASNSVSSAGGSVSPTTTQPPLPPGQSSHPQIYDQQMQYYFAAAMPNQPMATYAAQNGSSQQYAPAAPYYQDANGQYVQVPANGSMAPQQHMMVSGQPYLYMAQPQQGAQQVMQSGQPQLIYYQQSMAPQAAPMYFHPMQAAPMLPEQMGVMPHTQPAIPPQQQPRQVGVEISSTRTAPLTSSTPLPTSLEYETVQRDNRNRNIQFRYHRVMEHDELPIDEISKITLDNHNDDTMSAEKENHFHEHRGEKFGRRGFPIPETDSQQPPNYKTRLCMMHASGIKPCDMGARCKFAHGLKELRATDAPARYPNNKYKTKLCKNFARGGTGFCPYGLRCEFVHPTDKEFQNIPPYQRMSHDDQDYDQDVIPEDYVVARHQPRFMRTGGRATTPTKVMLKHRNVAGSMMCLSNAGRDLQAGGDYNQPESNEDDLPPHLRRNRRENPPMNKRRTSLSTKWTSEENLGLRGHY
Description: MEX-5/TCR-2 RNA interaction inhibitors, dose response, biochemical, C. elegans, fluorescence polarization (AID 1960).

For the next data set, the target named is T4, Coagulation factor XII (Homo sapiens, UniProt P00748).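 Also: activated factor XIIa alpha cleaving a fluorogenic AMC peptide substrate; inhibitor potency from loss of enzyme activity.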
T4 sequence (P00748 whole entry): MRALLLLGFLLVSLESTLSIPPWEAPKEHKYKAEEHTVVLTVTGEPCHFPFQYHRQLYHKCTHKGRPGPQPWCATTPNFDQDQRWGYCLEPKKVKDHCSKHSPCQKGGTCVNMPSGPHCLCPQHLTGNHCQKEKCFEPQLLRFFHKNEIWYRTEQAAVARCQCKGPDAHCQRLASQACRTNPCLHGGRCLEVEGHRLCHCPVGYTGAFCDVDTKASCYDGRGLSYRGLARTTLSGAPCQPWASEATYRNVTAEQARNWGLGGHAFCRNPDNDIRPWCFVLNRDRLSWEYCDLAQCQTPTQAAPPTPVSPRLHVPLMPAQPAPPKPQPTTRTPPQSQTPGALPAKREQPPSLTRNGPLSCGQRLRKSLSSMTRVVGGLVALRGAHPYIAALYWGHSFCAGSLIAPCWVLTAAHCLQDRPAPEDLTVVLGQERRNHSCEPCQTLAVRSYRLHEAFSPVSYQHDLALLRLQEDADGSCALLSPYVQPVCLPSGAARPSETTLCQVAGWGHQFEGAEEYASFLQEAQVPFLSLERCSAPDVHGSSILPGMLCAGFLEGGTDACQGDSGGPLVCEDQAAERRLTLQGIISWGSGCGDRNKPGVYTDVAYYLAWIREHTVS
The format is functional.

For the next data set, the target named is Melanocortin receptor 4 (Homo sapiens, UniProt P32245). Type of data set: functional, cell-based.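 Also: Cell-based assay with luminescence read-out, confirmatory dose-response testing for agonist activity of biased ligands at MC4R; human U2OS cells with tagged receptor and beta-arrestin; potency of agonists that increase receptor coupling to beta-arrestin.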
Sequence of Melanocortin receptor 4 (P32245 whole entry): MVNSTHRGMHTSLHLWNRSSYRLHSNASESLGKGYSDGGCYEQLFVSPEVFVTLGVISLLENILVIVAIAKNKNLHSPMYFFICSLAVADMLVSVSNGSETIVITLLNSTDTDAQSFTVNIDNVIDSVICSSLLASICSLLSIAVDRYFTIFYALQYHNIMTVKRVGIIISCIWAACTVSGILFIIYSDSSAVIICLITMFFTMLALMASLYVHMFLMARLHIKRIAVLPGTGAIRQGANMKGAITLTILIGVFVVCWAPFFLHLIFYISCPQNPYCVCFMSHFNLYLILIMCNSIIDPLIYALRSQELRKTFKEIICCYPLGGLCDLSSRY
For the next data set, the target named is T5, Cytochrome P450 1A2 (Homo sapiens, UniProt P05177).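 Also: PubChem cytochrome P450 panel assay, CYP1A2 panel member.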
T5 sequence (P05177 whole entry): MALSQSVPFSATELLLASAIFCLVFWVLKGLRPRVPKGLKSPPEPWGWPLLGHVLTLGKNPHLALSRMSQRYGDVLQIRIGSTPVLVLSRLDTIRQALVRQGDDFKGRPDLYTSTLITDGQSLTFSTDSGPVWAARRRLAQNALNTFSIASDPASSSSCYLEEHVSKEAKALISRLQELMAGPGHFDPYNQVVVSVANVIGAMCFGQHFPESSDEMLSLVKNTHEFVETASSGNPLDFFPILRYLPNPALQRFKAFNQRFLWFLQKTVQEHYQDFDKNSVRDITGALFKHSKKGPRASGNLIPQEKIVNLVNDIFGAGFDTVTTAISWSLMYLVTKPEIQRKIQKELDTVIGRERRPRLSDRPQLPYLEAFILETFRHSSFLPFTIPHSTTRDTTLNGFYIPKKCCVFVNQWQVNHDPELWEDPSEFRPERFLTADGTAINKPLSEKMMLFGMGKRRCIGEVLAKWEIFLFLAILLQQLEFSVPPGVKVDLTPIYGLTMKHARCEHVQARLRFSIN

In data set [6] the target is Glyceraldehyde-3-phosphate dehydrogenase (Homo sapiens, UniProt P04406).
Sequence of Glyceraldehyde-3-phosphate dehydrogenase (P04406 whole entry): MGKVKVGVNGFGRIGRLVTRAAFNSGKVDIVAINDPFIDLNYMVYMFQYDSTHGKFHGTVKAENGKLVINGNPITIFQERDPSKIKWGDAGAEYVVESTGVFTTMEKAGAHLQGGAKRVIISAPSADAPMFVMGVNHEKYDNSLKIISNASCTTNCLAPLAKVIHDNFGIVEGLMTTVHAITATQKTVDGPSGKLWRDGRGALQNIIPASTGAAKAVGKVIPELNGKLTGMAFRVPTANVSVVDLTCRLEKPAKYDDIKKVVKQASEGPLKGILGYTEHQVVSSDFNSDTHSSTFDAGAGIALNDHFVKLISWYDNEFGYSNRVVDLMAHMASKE
The target in data set [7] is T6, Alkaline phosphatase, tissue-nonspecific isozyme (Homo sapiens, UniProt P05186).
T6 sequence (P05186 whole entry): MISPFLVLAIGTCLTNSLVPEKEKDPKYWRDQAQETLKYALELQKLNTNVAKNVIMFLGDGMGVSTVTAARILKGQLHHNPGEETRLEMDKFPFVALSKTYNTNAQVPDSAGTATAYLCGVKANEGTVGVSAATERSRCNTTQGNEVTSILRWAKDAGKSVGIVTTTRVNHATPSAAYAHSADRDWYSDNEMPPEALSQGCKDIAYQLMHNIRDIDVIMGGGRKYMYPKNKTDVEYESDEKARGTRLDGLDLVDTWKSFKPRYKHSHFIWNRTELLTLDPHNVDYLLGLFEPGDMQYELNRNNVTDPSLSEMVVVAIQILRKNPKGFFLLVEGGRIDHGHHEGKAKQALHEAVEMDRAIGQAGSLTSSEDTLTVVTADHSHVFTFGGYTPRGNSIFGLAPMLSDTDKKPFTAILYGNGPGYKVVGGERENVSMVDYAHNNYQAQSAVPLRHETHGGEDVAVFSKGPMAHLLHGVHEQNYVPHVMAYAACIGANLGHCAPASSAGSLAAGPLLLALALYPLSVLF
Description: human TNAP enzyme inhibitors, SAR follow-up, biochemical, luminescent, dose response (AID 1056).

A further data set concerns the target T7, Protein skinhead-1 (Caenorhabditis elegans, UniProt P34707).
T7 sequence (P34707 whole entry): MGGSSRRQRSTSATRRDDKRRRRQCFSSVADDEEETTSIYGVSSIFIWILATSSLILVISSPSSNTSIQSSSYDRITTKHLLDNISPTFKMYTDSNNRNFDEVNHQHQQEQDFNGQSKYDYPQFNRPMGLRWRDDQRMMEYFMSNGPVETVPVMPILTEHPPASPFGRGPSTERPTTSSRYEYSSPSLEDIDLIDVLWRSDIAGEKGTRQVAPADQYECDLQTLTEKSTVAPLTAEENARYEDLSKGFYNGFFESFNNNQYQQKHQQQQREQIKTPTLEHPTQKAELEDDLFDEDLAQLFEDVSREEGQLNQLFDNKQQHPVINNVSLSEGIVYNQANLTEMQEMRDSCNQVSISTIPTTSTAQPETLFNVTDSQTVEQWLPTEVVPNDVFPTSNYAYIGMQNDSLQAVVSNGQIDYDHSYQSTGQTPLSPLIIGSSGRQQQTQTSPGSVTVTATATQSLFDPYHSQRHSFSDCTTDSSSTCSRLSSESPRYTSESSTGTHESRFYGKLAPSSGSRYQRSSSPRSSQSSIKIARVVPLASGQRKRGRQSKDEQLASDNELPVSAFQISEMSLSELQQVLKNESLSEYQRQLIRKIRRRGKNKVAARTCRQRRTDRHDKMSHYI
Type of data set: functional.

Data set [8] has as its target T8, Heat shock factor protein 1 (Mus musculus, UniProt P38532).
T8 sequence (P38532 whole entry): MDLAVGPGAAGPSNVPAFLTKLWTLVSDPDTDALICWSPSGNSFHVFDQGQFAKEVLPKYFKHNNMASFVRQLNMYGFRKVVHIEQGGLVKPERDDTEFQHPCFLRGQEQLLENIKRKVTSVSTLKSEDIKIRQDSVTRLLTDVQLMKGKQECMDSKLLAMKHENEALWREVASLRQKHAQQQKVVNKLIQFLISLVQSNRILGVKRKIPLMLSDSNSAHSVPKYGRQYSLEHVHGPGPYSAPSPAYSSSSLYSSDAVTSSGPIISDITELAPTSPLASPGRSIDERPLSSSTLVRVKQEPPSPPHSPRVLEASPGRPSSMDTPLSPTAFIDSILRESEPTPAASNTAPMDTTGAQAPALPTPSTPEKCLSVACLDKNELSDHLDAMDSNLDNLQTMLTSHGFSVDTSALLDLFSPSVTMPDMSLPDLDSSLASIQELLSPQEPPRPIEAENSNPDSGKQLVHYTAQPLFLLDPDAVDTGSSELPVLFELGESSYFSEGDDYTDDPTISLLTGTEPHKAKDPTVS
Description: inhibition of MG132-induced HSE-luciferase signal, confirmation, cell-based, NIH3T3, luminescence, dose retest (AID 2382).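 Also: NIH3T3 fibroblasts with HSF1-driven luciferase reporter stressed by proteasome inhibitor MG132; luminescence from HSF1-driven luciferase expression after 8 hours of MG132 stress.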 Type of data set: functional.

A further data set relates to H9c2. Description: cells. The format is functional, cell-based. The conditions noted are these: Rattus norvegicus, H9c2, Myocardium.

Sequence of Cytochrome P450 3A4 (P08684 whole entry): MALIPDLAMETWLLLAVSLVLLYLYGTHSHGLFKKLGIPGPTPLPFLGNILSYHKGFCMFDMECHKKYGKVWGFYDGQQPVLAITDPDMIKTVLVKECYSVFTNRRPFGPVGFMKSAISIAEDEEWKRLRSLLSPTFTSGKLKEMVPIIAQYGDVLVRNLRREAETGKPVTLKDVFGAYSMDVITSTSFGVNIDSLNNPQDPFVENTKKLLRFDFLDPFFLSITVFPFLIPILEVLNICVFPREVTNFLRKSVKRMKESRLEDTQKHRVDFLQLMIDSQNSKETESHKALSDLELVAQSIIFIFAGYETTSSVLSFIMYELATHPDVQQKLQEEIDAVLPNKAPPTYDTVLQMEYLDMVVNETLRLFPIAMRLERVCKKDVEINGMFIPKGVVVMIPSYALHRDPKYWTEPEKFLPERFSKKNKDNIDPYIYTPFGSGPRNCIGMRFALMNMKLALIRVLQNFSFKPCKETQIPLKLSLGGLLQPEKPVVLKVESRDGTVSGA
Sequence of Cytochrome P450 2C9 (P11712 whole entry): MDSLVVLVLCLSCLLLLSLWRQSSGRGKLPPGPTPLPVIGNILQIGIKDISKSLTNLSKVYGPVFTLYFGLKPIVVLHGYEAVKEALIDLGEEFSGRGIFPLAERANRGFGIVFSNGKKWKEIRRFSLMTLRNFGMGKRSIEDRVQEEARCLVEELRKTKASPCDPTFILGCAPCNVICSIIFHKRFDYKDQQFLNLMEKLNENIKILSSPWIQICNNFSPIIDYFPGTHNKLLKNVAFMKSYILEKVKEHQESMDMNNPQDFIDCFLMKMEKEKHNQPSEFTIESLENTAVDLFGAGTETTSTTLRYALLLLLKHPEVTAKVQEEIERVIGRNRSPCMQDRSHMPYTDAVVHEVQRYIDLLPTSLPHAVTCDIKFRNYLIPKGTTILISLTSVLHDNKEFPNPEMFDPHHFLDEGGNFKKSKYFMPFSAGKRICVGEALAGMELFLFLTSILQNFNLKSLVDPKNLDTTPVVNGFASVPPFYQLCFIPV
Sequence of Cytochrome P450 2D6 (P10635 whole entry): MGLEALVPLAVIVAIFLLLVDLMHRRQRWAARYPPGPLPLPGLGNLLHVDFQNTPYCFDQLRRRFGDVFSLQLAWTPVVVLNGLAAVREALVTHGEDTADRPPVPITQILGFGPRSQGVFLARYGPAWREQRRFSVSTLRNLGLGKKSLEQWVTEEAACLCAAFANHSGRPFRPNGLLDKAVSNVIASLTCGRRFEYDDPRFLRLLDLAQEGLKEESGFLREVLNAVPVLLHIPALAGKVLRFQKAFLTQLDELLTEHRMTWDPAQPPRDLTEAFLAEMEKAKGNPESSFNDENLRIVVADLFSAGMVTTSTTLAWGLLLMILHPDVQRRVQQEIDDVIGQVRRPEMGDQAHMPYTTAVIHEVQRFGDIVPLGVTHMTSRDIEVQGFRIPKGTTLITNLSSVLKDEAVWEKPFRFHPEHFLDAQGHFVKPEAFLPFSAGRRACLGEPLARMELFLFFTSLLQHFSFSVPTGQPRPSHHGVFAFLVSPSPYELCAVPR
Sequence of Eukaryotic translation initiation factor 4E (P63073 whole entry): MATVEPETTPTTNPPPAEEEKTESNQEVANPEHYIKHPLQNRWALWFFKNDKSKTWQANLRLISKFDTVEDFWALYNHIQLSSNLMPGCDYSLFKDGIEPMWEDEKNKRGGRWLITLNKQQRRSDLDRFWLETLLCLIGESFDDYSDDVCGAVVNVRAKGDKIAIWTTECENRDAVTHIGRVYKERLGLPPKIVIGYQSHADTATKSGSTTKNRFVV

On to `CCN(CC)S(=O)(=O)c1ccc(Cl)c(NC(=O)c2cc(Cl)ccc2Cl)c1`, for which the EC50 in data set [1] and in data set [2] was > 99 µM (inactive) throughout.
As to `CC(=O)CC(=O)[C@@]1(O)CC[C@@H]2[C@@H]3C=C(C)C4=CC(=O)CC[C@@H]4[C@H]3CC[C@]21C`, the figures for the half-maximal activity concentration (AC50) result at Cytochrome P450 3A4 and at Cytochrome P450 2C9 were “inconclusive” and 12.6 µM (inconclusive), respectively.
With `O=C(c1ccc(Cl)cc1)N1CCN(C(=O)c2ccco2)CC1`, at Cytochrome P450 3A4, the AC50 result is “inconclusive”.
On to `COc1ccc(C2c3cc(OC)c(OC)cc3CCN2S(C)(=O)=O)cc1OC` (configuration not stated), for which the IC50 in [3] is 50 µM (inactive); on Coagulation factor XII, > 50 µM (inactive). The half-maximal effective concentration (EC50) in data set [4] and in data set [5] was > 300 µM (not active) in each case.
For `C/C=C1\C(=O)C[C@@H]2[C@@H]3CCC4=CC(=O)CC[C@@]4(C)[C@H]3CC[C@@]12C`, the AC50 entry was “inconclusive” at Cytochrome P450 3A4 and 39.8 µM (inconclusive) at Cytochrome P450 2C9.
On to `CCOC(=O)Cc1csc(NC(=O)c2sc3nc4cc(C)ccc4cc3c2N)n1`, for which the values for the EC50 (at Melanocortin receptor 4; in data set [4]; in data set [5]) were > 89.2 µM (inactive), 27.2 µM (inconclusive) and 1.62 µM (inconclusive), respectively.
Consider `CC(=O)c1cc2c(C)c(C(=O)c3ccccc3)oc2cc1O`, for which the EC50 in data set [1] and in [2] was > 99 µM (inactive) throughout.
In the case of `COCCNc1cc(-c2ccccc2C(F)(F)F)ncn1`, the results for the AC50 at Cytochrome P450 1A2 and at Cytochrome P450 3A4 were 15.8 µM (inconclusive) and “inconclusive”, respectively.
Turning to `CCOC(=O)c1cc(-c2ccc(Cl)cc2)n[nH]1`, the values for the IC50 in [6] and in data set [7] were > 100 µM (not active) and 2.35 µM (active), respectively.
Regarding `COc1ccccc1C(=O)Nc1ccc2ccccc2c1`, the figures for the IC50 (in [6]; on Protein skinhead-1; in [7]) were > 10 µM (inconclusive), 42.7 µM (active) and > 10 µM (inactive), respectively.
In the case of `Cc1ccc(-c2cc(C(=O)O)[nH]n2)c(C)c1`, the IC50 is > 100 µM (not active) in [6] and 3.34 µM (active) in data set [7].
For `CCOC(=O)c1ccc2c(c1)nc(C1CCN(S(=O)(=O)c3cccs3)CC1)n2CC`, the IC50 on Coagulation factor XII is > 50 µM (inactive).
As to `NC1=Nc2ccccc2Oc2ccccc21`, the figures for the AC50 result on Cytochrome P450 3A4 and at Cytochrome P450 2D6 were “inconclusive” and 20 µM (inconclusive), respectively.
For the compound `O=S(=O)(Nc1ccc2ncccc2c1)c1cc(Cl)ccc1Cl`, the IC50 in data set [6] is > 100 µM (not active); in data set [7], > 100 µM (inactive).
As for `O=C(O)CC1(CC(=O)NCc2ccncc2)CCCCC1`, at Coagulation factor XII, the IC50 is > 50 µM (inactive).
Consider `Cc1cc(O)c(/C=N/c2ccc(N3CCOCC3)cc2)c(C)c1Cl`, for which the EC50 is > 195 µM (not active) in data set [8], > 99 µM (inactive) in [1] and 53.5 µM (inactive) in [2]. Further, the IC50 in the data set with H9c2 was > 79 µM (inactive).
With `CC(=O)Nc1cc(-c2ccccc2N(C)C)cn2c(-c3ccccc3)cnc12`, at Melanocortin receptor 4, the EC50 was > 89.2 µM (inactive).
As to `Cc1cc(C)n(/N=C/c2ccccc2)c(=O)c1C#N`, the IC50 at Coagulation factor XII was > 50 µM (inactive).

The EC50 is the concentration at which the effect is half-maximal. As usually defined, the AC50 is the concentration at which the activity in the assay is half-maximal. Broadly, the IC50 is the midpoint of a concentration-inhibition curve.
